In PMC7497403, “Development of Potent PfCLK3 Inhibitors Based on TCMDC-135051 as a New Class of Antimalarials” (Journal of Medicinal Chemistry, 2020):

How the values were obtained:
[1] = test system: P. falciparum 3D7; test: Parasite growth inhibition (Sybr Green I) in 3D7 parasites; assay type: cell-based; details: for fold decrease in parasite growth inhibition: 3D7 parasites, relative to TCMDC-135051 (1); for 3D7 ED50: Table 2, asexual 3D7 P. falciparum; for EC50: Plasmodium falciparum, asexual 3D7 (chloroquine-sensitive) P. falciparum, ± SEM, n = 3, read-out: 3D7 pEC50 (converted)
[2] = Microsomal stability; assay type: in vitro ADME; details: mouse liver microsomes; 1 μM compound
Description: Compounds were incubated at 37 °C at a concentration of 1 μM with CD1 mouse liver microsomes (GIBCO, Thermo Fisher Scientific) in a suspension of 50 mM potassium phosphate buffer (pH 7.4) with a final protein concentration of 0.5 mg/mL. The reaction was started by the addition of excess NADPH and then quenched at several time points starting from time 0, then at 3, 6, 9, 15, and 30 min addition of acetonitrile to an aliquot of the sample. An internal standard was added to each sample before centrifugation to remove any precipitates before monitoring loss of parent compound by HPLC analysis using Shimadzu LC-20A (Shimadzu, UK). Prism (Graphpad, USA) was used to fit an exponential decay for substrate depletion and subsequently rate constant (k) from the peak area of the parent compound to the internal standard at each time point.

[3] = biological target: T1, full-length PfCLK3 recombinant protein (Plasmodium falciparum, UniProt Q8IIL5); test: TR-FRET PfCLK3 in vitro kinase assay; assay type: biochemical, P. falciparum; details: for IC50: TR-FRET, full-length recombinant PfCLK3, ± SEM, n = 3, read-out: PfCLK3 pIC50 (converted)
T1 sequence (Q8IIL5 1-699): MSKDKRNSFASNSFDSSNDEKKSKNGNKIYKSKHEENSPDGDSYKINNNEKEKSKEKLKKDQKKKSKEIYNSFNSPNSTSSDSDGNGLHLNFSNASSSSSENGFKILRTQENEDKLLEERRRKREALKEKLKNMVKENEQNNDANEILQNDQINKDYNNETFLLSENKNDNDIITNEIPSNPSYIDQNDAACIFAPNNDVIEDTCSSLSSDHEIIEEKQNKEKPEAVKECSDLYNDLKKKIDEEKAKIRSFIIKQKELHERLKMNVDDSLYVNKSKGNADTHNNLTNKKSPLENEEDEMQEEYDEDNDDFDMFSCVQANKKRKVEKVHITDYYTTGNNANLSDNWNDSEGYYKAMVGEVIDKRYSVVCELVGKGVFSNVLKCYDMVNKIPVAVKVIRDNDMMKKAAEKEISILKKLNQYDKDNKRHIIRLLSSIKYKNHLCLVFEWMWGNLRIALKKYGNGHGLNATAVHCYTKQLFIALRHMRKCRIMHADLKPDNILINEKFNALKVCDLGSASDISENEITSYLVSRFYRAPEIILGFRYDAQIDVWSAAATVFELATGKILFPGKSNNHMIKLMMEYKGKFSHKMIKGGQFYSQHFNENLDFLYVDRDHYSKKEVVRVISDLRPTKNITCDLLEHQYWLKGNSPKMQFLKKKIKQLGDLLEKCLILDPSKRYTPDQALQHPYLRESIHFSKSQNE
Description: First, in a 10 μL reaction volume, 5 μL of twice the required enzyme concentration (50 nM) and 2.5 μL of four times the required substrate concentration mix containing cold ATP, and the serially diluted drugs were mixed in a black 384-plate well plate and incubated at 37 °C for 1 h. The reaction was stopped after incubation by adding the stopping/detection solution (containing 30 mM EDTA in 1× Lance detection buffer and 3 nM Europium-labeled antiphospho-specific antibody) and incubated for another hour at RT before phosphorylation signals were measured using the ClarioStar.
For each test compound, percent inhibition (response) which was calculated using the formula: [drawing 3] was plotted against the log molar concentration of compound to calculate the IC50 (potency) of each inhibitor molecule and plotted using GraphPad prism software. All experiments were carried out in triplicates, and the data presented were the standard error of the mean (SEM) of three independent experiments run in triplicates.
PfCLK3 phosphorylation of substrate results in the Europium-labeled antiphospho-specific antibody recognizing the phosphorylated site on the substrate. The Europium donor fluorophore is excited at 320 or 340 nm, and energy is transferred to the ULight acceptor dye on the substrate, which finally results in the emission of light at 665 nm. The level of ULight peptide phosphorylation correlates with the intensity of the emission. For normalization, a no kinase and a no inhibitor reaction wells were included, and all experiments were conducted in triplicates. Drug dilutions, protein concentrations, and incubation times were the same for easy comparison of results.

[4] = test system: P. falciparum clinical field isolates from The Gambia; test: Parasite reduction rate (PRR) assay with clinical isolates; assay type: cell-based; details: all isolates except GB0020, GB002 and GB0026; at EC50 concentration (18 nM)

Structure (SMILES)	fold decrease in parasite growth inhibition [1] [fold]	clint (in vitro intrinsic clearance) [2] [mL/min/g liver]	IC50 [3] [nM]	also measured
CCN(CC)Cc1cccc(-c2cc3c(-c4ccc(C(=O)O)c(C(C)C)c4)ccnc3[nH]2)c1 [analogue 23, 4-(2-{3-[(Diethylamino)methyl]phenyl}-1H-pyrrolo[2,3-b]pyridin-4-yl)-2-(propan-2-yl)benzoic Acid]	1.5	0.85	–	–
CCN(CC)Cc1ccc(OC)c(-c2cc3c(-c4ccc(-c5nnn[nH]5)c(C(C)C)c4)ccnc3[nH]2)c1 [analogue 30, N-Ethyl-N-(3-(4-(3-isopropyl-4-(1H-tetrazol-5-yl)phenyl)-1H-pyrrolo[2,3-b]pyridin-2-yl)-4-methoxybenzyl)ethanamine]	–	2.32	–	–
CCOC(=O)c1ccc(-c2ccnc3[nH]c(-c4cc(CN(CC)CC)ccc4OC)cc23)cc1C(C)C [analogue 9, Ethyl 4-(2-(5-((Diethylamino)methyl)-2-methoxyphenyl)-1H-pyrrolo[2,3-b]pyridin-4-yl)-2-isopropylbenzoate]	–	16.06	–	–
COc1ccc(CN2CCCC2)cc1-c1cc2c(-c3ccc(C(=O)O)c(C(C)C)c3)ccnc2[nH]1 [analogue 8b, 4-(2-{2-Methoxy-5-[(pyrrolidin-1-yl)methyl]phenyl}-1H-pyrrolo[2,3-b]pyridin-4-yl)-2-(propan-2-yl)benzoic Acid]	2	1.94	–	–
CCN(CC)Cc1cccc(-c2cc3c(-c4ccc(C(=O)O)c(C(C)C)c4)ccnc3[nH]2)c1OC [analogue 27, 4-(2-(3-((Diethylamino)methyl)-2-methoxyphenyl)-1H-pyrrolo[2,3-b]pyridin-4-yl)-2-isopropylbenzoic Acid]	15	1.65	20	fold increase in in vitro kinase activity (PfCLK3) ([3]; relative to TCMDC-135051 (1)): 2 fold
COc1ccc(CN)cc1-c1cc2c(-c3ccc(C(=O)O)c(C(C)C)c3)ccnc2[nH]1 [analogue 12, 4-{2-[5-(Aminomethyl)-2-methoxyphenyl]-1H-pyrrolo[2,3-b]pyridin-4-yl}-2-(propan-2-yl)benzoic Acid]	–	2.92	–	fold less potent in vitro (PfCLK3) ([3]; relative to TCMDC-135051 (1)): 2 fold
CCN(CC)Cc1ccc(OC)c(-c2cc3c(-c4ccc(C(=O)O)c(C)c4)ccnc3[nH]2)c1 [analogue 28, 4-(2-(5-((Diethylamino)methyl)-2-methoxyphenyl)-1H-pyrrolo[2,3-b]pyridin-4-yl)-2-methylbenzoic Acid]	6	1.33	–	3D7 ED50 [1]: 1185 nM
COc1ccccc1-c1cc2c(-c3ccc(C(=O)O)c(C(C)C)c3)ccnc2[nH]1 [analogue 15, 4-[2-(2-Methoxyphenyl)-1H-pyrrolo[2,3-b]pyridin-4-yl]-2-(propan-2-yl)benzoic Acid]	7	2.54	–	–
COc1ccc(CN(C)C)cc1-c1cc2c(-c3ccc(C(=O)O)c(C(C)C)c3)ccnc2[nH]1 [analogue 8a, 4-(2-{5-[(Dimethylamino)methyl]-2-methoxyphenyl}-1H-pyrrolo[2,3-b]pyridin-4-yl)-2-(propan-2-yl)benzoic Acid]	2	2.53	31.6	EC50 [1]: 501 nM
CCc1nc(N)nc(N)c1-c1ccc(Cl)cc1 [pyrimethamine, reference compound]	–	–	–	reduction in parasitemia (PRR) [4]: at least 70%
CCN(CC)Cc1ccc(OC)c(-c2cc3c(-c4cccc(C(C)C)c4)ccnc3[nH]2)c1 [analogue 31, N-Ethyl-N-(3-(4-(3-isopropylphenyl)-1H-pyrrolo[2,3-b]pyridin-2-yl)-4-methoxybenzyl)ethanamine]	–	9.54	1000	–
COc1ccc(CN2CCOCC2)cc1-c1cc2c(-c3ccc(C(=O)O)c(C(C)C)c3)ccnc2[nH]1 [analogue 8c, 4-(2-{2-Methoxy-5-[(morpholin-4-yl)methyl]phenyl}-1H-pyrrolo[2,3-b]pyridin-4-yl)-2-(propan-2-yl)benzoic Acid]	–	1.60	10	–
CCN(CC)Cc1ccc(OC)c(-c2cc3c(-c4ccc(C(=O)O)cc4)ccnc3[nH]2)c1 [analogue 29, 4-(2-(5-((Diethylamino)methyl)-2-methoxyphenyl)-1H-pyrrolo[2,3-b]pyridin-4-yl)benzoic Acid]	16	11.01	31.6	3D7 ED50 [1]: 3272 nM
CCN(CC)Cc1ccc(O)c(-c2cc3c(-c4ccc(C(=O)O)c(C(C)C)c4)ccnc3[nH]2)c1 [analogue 19, 4-(2-(5-((Diethylamino)methyl)-2-hydroxyphenyl)-1H-pyrrolo[2,3-b]pyridin-4-yl)-2-isopropylbenzoic Acid]	–	1.94	20	EC50 [1]: 3160 nM
